Measurements: PubChem BioAssay (NCI)
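The compound was tested at five concentrations on cells cultured in 96-well plates, with a 48-hour exposure period. GI50 marks 50% less growth. TGI: total growth inhibition.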

Tests used:
Assay in all cases: NCI-60 cell line screen, 48 h
MALME-3M melanoma = tested on: MALME-3M melanoma
SF-295 CNS = tested on: SF-295 CNS
UACC-62 melanoma = tested on: UACC-62 melanoma
A549 NSCLC = tested on: A549 NSCLC
LOX IMVI melanoma = tested on: LOX IMVI melanoma
NCI-H23 lung = tested on: NCI-H23 lung
NCI-H460 lung = tested on: NCI-H460 lung
SK-OV-3 ovarian = tested on: SK-OV-3 ovarian
SW-620 colon = tested on: SW-620 colon
BT-549 breast = tested on: BT-549 breast

SMILES | TGI (MALME-3M melanoma) | TGI (SF-295 CNS) | TGI (UACC-62 melanoma) | TGI (A549 NSCLC) | TGI (LOX IMVI melanoma) | TGI (NCI-H23 lung) | TGI (NCI-H460 lung) | TGI (SK-OV-3 ovarian) | TGI (SW-620 colon) | GI50 (BT-549 breast) | TGI (BT-549 breast) | GI50 (SF-295 CNS) | GI50 (UACC-62 melanoma) | GI50 (A549 NSCLC) | GI50 (LOX IMVI melanoma) | GI50 (NCI-H23 lung) | GI50 (NCI-H460 lung) | GI50 (SK-OV-3 ovarian) | GI50 (SW-620 colon) | GI50 (MALME-3M melanoma)
Nc1n[n+](-c2ccccc2)no1 | > 100 µM | > 100 µM | 89.6 µM | > 100 µM | > 100 µM | > 100 µM | > 100 µM | > 100 µM | > 100 µM | – | – | – | – | – | – | – | – | – | – | –
N#Cc1cc(S(=O)(=O)Nc2nnc(-c3ccccc3)c(-c3ccccc3)n2)c(SCc2ccccc2)cc1Cl | – | 46.5 µM | 48.7 µM | 40.7 µM | 32.8 µM | > 100 µM | > 100 µM | 57.4 µM | > 100 µM | 30.9 µM | 89.6 µM | 24.8 µM | 20.5 µM | 22.2 µM | 16.8 µM | > 100 µM | 38.7 µM | 23.4 µM | 35.5 µM | –
CC1=C(O)/C(=C/C(C)CCC/C(C)=C/C=C/C(C)CCCc2ccoc2)OC1=O (configuration not stated) | 49.4 µM | 81 µM | – | 73.6 µM | > 100 µM | 59.3 µM | > 100 µM | – | > 100 µM | – | – | – | – | – | – | – | – | – | – | –
CC(=O)[CH-]C(=O)c1ccccc1.CC(=O)[CH-]C(=O)c1ccccc1.Cc1cc([O-])ccc1Cl.Cc1cc([O-])ccc1Cl.[Ti+4] | 52.8 µM | 98.7 µM | 44.9 µM | > 100 µM | 31.8 µM | > 100 µM | > 100 µM | > 100 µM | > 100 µM | – | – | 29.8 µM | 17 µM | 37.6 µM | 12.6 µM | 35.6 µM | 22.6 µM | 31.3 µM | 34 µM | 20.9 µM
O=NNc1ccc(Sc2ccc(NN=O)cn2)nc1 | – | > 100 µM | > 100 µM | > 100 µM | – | > 100 µM | > 100 µM | > 100 µM | > 100 µM | – | > 100 µM | – | – | – | – | – | – | – | – | –
O=C(N/N=C1\C(=O)N(c2nccs2)C(=O)C(=O)C1c1nc2ccccc2s1)c1ccccc1O (configuration not stated) | > 100 µM | > 100 µM | > 100 µM | > 100 µM | > 100 µM | > 100 µM | > 100 µM | > 100 µM | > 100 µM | – | – | – | – | – | – | – | – | – | – | –
CCc1cc(CCC(=O)Nc2ccccc2[N+](=O)[O-])[nH]c(=S)n1 | – | > 100 µM | > 100 µM | > 100 µM | > 100 µM | > 100 µM | > 100 µM | > 100 µM | > 100 µM | – | – | – | – | – | – | – | – | – | – | –
C=C1CC2CC(O)CC(C1)C2 (configuration not stated) | > 100 µM | > 100 µM | > 100 µM | > 100 µM | > 100 µM | > 100 µM | > 100 µM | > 100 µM | > 100 µM | – | – | – | – | – | – | – | – | – | – | –
CCOC(=O)C(CC/C=C\c1ccccc1)N1CCC[C@H]1C(=O)OC (some centres not stated) | > 100 µM | > 100 µM | > 100 µM | > 100 µM | > 100 µM | > 100 µM | > 100 µM | > 100 µM | > 100 µM | – | – | – | – | – | – | – | – | – | – | –
CCCCCCCCCCCCCCCCCCOCC(CCP(=O)(CP(=O)(O)O)Oc1ccccc1)OCCCCCCCCCCCCCCCCCC (configuration not stated) | > 100 µM | > 100 µM | > 100 µM | > 100 µM | > 100 µM | > 100 µM | > 100 µM | > 100 µM | > 100 µM | – | – | – | – | – | – | – | – | – | – | –
COc1ccc2oc(C(=O)O)c3c2c1CCC3CCC(=O)O (configuration not stated) | > 100 µM | > 100 µM | > 100 µM | > 100 µM | > 100 µM | > 100 µM | > 100 µM | > 100 µM | > 100 µM | – | – | – | – | – | – | – | – | – | – | –
O=C(CCn1[nH]c(=O)c(Cl)c(Cl)c1=O)NNC(=O)C[n+]1ccccc1 | > 100 µM | > 100 µM | > 100 µM | > 100 µM | > 100 µM | > 100 µM | > 100 µM | > 100 µM | > 100 µM | – | – | – | – | – | – | – | – | – | – | –
O=C(CC(=O)c1cccc2ccccc12)C(=O)NC1C2CC3CC(C2)CC1C3 (configuration not stated) | > 100 µM | > 100 µM | > 100 µM | > 100 µM | > 100 µM | > 100 µM | > 100 µM | > 100 µM | > 100 µM | – | – | – | – | – | – | – | – | – | – | –
C/C=C(\CCOS(=O)(=O)c1ccc(C)cc1)[Si](C)(C)C | > 100 µM | > 100 µM | > 100 µM | > 100 µM | > 100 µM | > 100 µM | > 100 µM | > 100 µM | > 100 µM | – | – | – | – | – | – | – | – | – | – | –
CO/N=C(\COc1ccc2oc(-c3ccccc3)cc(=O)c2c1)c1ccc(OC)cc1 | 63.8 µM | 48.9 µM | 84.7 µM | 73 µM | > 100 µM | > 100 µM | – | > 100 µM | > 100 µM | 41.2 µM | > 100 µM | 21.7 µM | 27 µM | 24.4 µM | 41.4 µM | 32.4 µM | – | 59.3 µM | 25.6 µM | 24.8 µM
N#CC1(C#N)C2C=CC(c3coc4cccc2c34)C1(C#N)C#N (configuration not stated) | 18.8 µM | 42.8 µM | 24.4 µM | 37.5 µM | 28.7 µM | 36.9 µM | 37.4 µM | 31.7 µM | 3.32 µM | – | – | – | – | – | – | – | – | – | – | –
Cc1cccc2c1CCC21OC(=O)c2c1ccc1ccccc21 (configuration not stated) | 75.5 µM | > 100 µM | > 100 µM | > 100 µM | > 100 µM | 98.7 µM | > 100 µM | > 100 µM | > 100 µM | – | – | – | – | – | – | – | – | – | – | –
Cc1ccc(NC(=O)CSc2nnc3n(Cc4ccccc4)c(=O)c4c(C)c(C(N)=O)sc4n23)cc1 | > 100 µM | 76.6 µM | > 100 µM | > 100 µM | > 100 µM | > 100 µM | – | 65.4 µM | > 100 µM | 12.7 µM | 72 µM | 26.7 µM | > 100 µM | > 100 µM | > 100 µM | 17.3 µM | – | 4.28 µM | > 100 µM | > 100 µM
O=C1c2ccccc2-c2c1c1c(O)cccc1n2Cc1ccccn1 | – | > 100 µM | > 100 µM | > 100 µM | > 100 µM | > 100 µM | > 100 µM | > 100 µM | > 100 µM | 26.2 µM | > 100 µM | 23.6 µM | 20.5 µM | 45.3 µM | 35.5 µM | 44.1 µM | 52.1 µM | 89 µM | 42 µM | –
